Experimental data taken from patent publication US20230072421A1, “TARGETED RADIOPHARMACEUTICALS FOR THE DIAGNOSIS AND TREATMENT OF PROSTATE CANCER” (Bayer AS, priority 2019, published 2023).

What was measured:
[1] = target: T1, PSMA-expressing LNCaP cells (Homo sapiens, UniProt Q04609); test: Binding competition assay against 3H-PSMA-617 on LNCaP cells; conditions: for remaining activity at 0.01 µM / remaining activity at 0.1 µM / % remaining 3H-PSMA-617 @ 10 nM (mean) / % remaining 3H-PSMA-617 @ 100 nM (mean): LNCaP cells, 10 nM 3H-PSMA-617, 2 h at 37° C., triplicates; for remaining activity at 0.01 µM / % remaining 3H-PSMA-617 @ 10 nM (mean): competing non-radiolabeled compound 10 nM; for remaining activity at 0.1 µM / % remaining 3H-PSMA-617 @ 100 nM (mean): competing non-radiolabeled compound 100 nM; for competition against 3H-PSMA-617 on PSMA-expressing LNCaP cells (in words): comparison between examples
T1 construct: PSMA-expressing LNCaP cells; endogenous in cells; host or cells: LNCaP
Procedure, shortened: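 Compounds added to LNCaP cells in growth medium, 2 h at 37 °C, 5% CO2. After two ice-cold PBS washes, cells lysed in 0.3 M NaOH and bound radioactivity measured by liquid scintillation counting.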

[2] = tested on: VCap, C4-2, 22Rv1 and LnCap cells; test: Cell proliferation assay, summary statements over several cell lines; type: cell-based; conditions: for antiproliferative activity on VCap, C4-2, 22Rv1 and LnCap cells (in words): 227Th-labelled compounds bearing the HOPO chelator Example A
Method: Inhibition of cell proliferation of Thorium-227 labeled PMSA SMOL ligands was tested different prostate cancer cell lines, namely 22Rv1, VCaP, C4-2 (all from ATCC, Manassas, Va., USA) and LNCaP (DMSZ, Braunschweig). Cells were seeded using the following conditions in 384 well plates (Corning) in 30 μl of growth media at 4000 cells/well for VCaP cells and 1000 cells/well for 22Rv1, C4-2 and LNCaP cells.
Cells were cultivated an incubator at 37° C. and 5% C02 over night. […] In sister plates cell viability at treatment start (d=0) was determined using CellTiter-Glo® assay (CTG, Promega, Madison, Wis., USA), by adding 30 μl per well CTG solution, incubation for 10 min and reading of Luminescence in a PheraStarFSX instrument (BMG Labtech). After a 5-day exposure in the presenced of test compounds, cell viability of treated or untreated control cells was determined again using CellTiter-Glo® assay (Promega, Madison, Wis., USA). […] The DRC software is a Biobook Spreadsheet that was developed by Bayer AG and Bayer Business Services on the IDBS E-Workbook Suite platform (IDBS: ID Business Solutions Ltd., Guildford, UK).

[3] = tested on: LNCaP human prostate cancer cells; test: LNCaP xenograft efficacy study (T/C tumor area); type: in vivo, SCID mice; conditions: Example III; day 64 after start of therapy; single treatment 1.5 MBq/kg
Procedure, shortened: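 SCID mice with testosterone pellet bearing s.c. flank LNCaP xenografts (5×10^6 cells in Matrigel) were treated i.v. with a defined radioactive dose once tumors reached 35-50 mm^2 (n=10/group). Tumor area (caliper, longest diameter × perpendicular) measured 2-3× weekly; T/C ratio calculated from tumor areas when vehicle group closed.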

T1 sequence (Q04609 whole entry): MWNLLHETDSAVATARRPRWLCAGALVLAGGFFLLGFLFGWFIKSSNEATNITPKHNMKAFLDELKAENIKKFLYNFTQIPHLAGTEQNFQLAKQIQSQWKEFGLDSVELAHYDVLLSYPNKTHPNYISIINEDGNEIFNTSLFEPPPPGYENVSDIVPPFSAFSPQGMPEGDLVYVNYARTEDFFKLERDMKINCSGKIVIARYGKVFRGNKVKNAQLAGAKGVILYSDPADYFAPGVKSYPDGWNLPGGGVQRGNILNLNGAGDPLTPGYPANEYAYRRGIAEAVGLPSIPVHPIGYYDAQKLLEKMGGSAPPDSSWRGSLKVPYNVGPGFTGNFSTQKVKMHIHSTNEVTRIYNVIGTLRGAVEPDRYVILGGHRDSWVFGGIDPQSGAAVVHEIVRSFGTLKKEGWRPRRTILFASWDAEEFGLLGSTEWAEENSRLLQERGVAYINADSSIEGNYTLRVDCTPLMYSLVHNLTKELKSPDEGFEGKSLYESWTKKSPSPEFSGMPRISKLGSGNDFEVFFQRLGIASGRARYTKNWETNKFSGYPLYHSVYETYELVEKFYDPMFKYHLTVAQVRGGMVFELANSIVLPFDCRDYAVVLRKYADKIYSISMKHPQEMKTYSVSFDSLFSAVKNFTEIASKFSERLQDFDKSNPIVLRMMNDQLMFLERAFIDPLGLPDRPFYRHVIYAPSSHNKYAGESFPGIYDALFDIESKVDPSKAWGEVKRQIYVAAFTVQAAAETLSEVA

remaining activity at 0.01 µM [1] [%]	remaining activity at 0.1 µM [1] [%]	competition against 3H-PSMA-617 on PSMA-expressing LNCaP cells (in words) [1]	Structure (SMILES)	antiproliferative activity on VCap, C4-2, 22Rv1 and LnCap cells (in words) [2]	% remaining 3H-PSMA-617 @ 10 nM (mean) [1] [%]	% remaining 3H-PSMA-617 @ 100 nM (mean) [1] [%]	antiproliferative activity on VCap and C4-2 cells (in words) ([2]; 227Th-labelled compounds, in comparison to 227Th-labelled examples 1-C monomer, dimer, trimer and tetramer)	T/Carea [3]
45	9	improved competition	Cc1cc(C(=O)NCCN(CCCN(CCNC(=O)c2cc(C)n(CC(=O)NC[C@H]3CC[C@H](C(=O)N[C@@H](Cc4ccc5ccccc5c4)C(=O)NCCCC[C@H](NC(=O)N[C@@H](CCC(=O)O)C(=O)O)C(=O)O)CC3)c(=O)c2O)CCNC(=O)c2cc(C)n(CC(=O)NC[C@H]3CC[C@H](C(=O)N[C@@H](Cc4ccc5ccccc5c4)C(=O)NCCCC[C@H](NC(=O)N[C@@H](CCC(=O)O)C(=O)O)C(=O)O)CC3)c(=O)c2O)CCNC(=O)c2cc(C)n(CC(=O)NC[C@H]3CC[C@H](C(=O)N[C@@H](Cc4ccc5ccccc5c4)C(=O)NCCCC[C@H](NC(=O)N[C@@H](CCC(=O)O)C(=O)O)C(=O)O)CC3)c(=O)c2O)c(O)c(=O)n1CC(=O)O [1-C trimer]	high antiproliferative activity				
			Cc1cc(C(=O)NCCN(CCCN(CCNC(=O)c2cc(C)n(CC(=O)NC[C@H]3CC[C@H](C(=O)N[C@@H](Cc4cnc5ccccc5c4)C(=O)NCCCC[C@H](NC(=O)N[C@@H](CCC(=O)O)C(=O)O)C(=O)O)CC3)c(=O)c2O)CCNC(=O)c2cc(C)n(CC(=O)NC[C@H]3CC[C@H](C(=O)N[C@@H](Cc4cnc5ccccc5c4)C(=O)NCCCC[C@H](NC(=O)N[C@@H](CCC(=O)O)C(=O)O)C(=O)O)CC3)c(=O)c2O)CCNC(=O)c2cc(C)n(CC(=O)NC[C@H]3CC[C@H](C(=O)N[C@@H](Cc4cnc5ccccc5c4)C(=O)NCCCC[C@H](NC(=O)N[C@@H](CCC(=O)O)C(=O)O)C(=O)O)CC3)c(=O)c2O)c(O)c(=O)n1CC(=O)O [Example 22-C trimer]	high antiproliferative activity	33	5		
42	8		Cc1cc(C(=O)NCCN(CCCN(CCNC(=O)c2cc(C)n(CC(=O)O)c(=O)c2O)CCNC(=O)c2cc(C)n(CC(=O)NC[C@H]3CC[C@H](C(=O)N[C@@H](Cc4ccc5ccccc5n4)C(=O)NCCCC[C@H](NC(=O)N[C@@H](CCC(=O)O)C(=O)O)C(=O)O)CC3)c(=O)c2O)CCNC(=O)c2cc(C)n(CC(=O)O)c(=O)c2O)c(O)c(=O)n1CC(=O)O [Example 17-C monomer]	high antiproliferative activity				
			CNc1cc(CC(NC(=O)C2CCC(CNC(=O)Cn3c(C)cc(C(=O)NCCN(CCCN(CCNC(=O)c4cc(C)n(CC(=O)O)c(=O)c4O)CCNC(=O)c4cc(C)n(CC(=O)NCC5CCC(C(=O)NC(Cc6cc(NC)c7ccccc7c6)C(=O)NCCCCC(NC(=O)NC(CCC(=O)O)C(=O)O)C(=O)O)CC5)c(=O)c4O)CCNC(=O)c4cc(C)n(CC(=O)O)c(=O)c4O)c(O)c3=O)CC2)C(=O)NCCCCC(NC(=O)NC(CCC(=O)O)C(=O)O)C(=O)O)cc2ccccc12 (stereo not drawn) [37-C dimer]	high antiproliferative activity	64	13		
32	5	improved competition	Cc1cc(C(=O)NCCN(CCCN(CCNC(=O)c2cc(C)n(CC(=O)O)c(=O)c2O)CCNC(=O)c2cc(C)n(CC(=O)NC[C@H]3CC[C@H](C(=O)N[C@@H](Cc4ccc5ccccc5c4)C(=O)NCCCC[C@H](NC(=O)N[C@@H](CCC(=O)O)C(=O)O)C(=O)O)CC3)c(=O)c2O)CCNC(=O)c2cc(C)n(CC(=O)O)c(=O)c2O)c(O)c(=O)n1CC(=O)O [Example 1-C Monomer]	high antiproliferative activity				
59	7	improved competition	Cc1cc(C(=O)NCCN(CCCN(CCNC(=O)c2cc(C)n(CC(=O)NC[C@H]3CC[C@H](C(=O)N[C@@H](Cc4ccc5ccccc5c4)C(=O)NCCCC[C@H](NC(=O)N[C@@H](CCC(=O)O)C(=O)O)C(=O)O)CC3)c(=O)c2O)CCNC(=O)c2cc(C)n(CC(=O)NC[C@H]3CC[C@H](C(=O)N[C@@H](Cc4ccc5ccccc5c4)C(=O)NCCCC[C@H](NC(=O)N[C@@H](CCC(=O)O)C(=O)O)C(=O)O)CC3)c(=O)c2O)CCNC(=O)c2cc(C)n(CC(=O)NC[C@H]3CC[C@H](C(=O)N[C@@H](Cc4ccc5ccccc5c4)C(=O)NCCCC[C@H](NC(=O)N[C@@H](CCC(=O)O)C(=O)O)C(=O)O)CC3)c(=O)c2O)c(O)c(=O)n1CC(=O)NC[C@H]1CC[C@H](C(=O)N[C@@H](Cc2ccc3ccccc3c2)C(=O)NCCCC[C@H](NC(=O)N[C@@H](CCC(=O)O)C(=O)O)C(=O)O)CC1 [1-C tetramer]	high antiproliferative activity				0.36

Structure (SMILES)	remaining activity at 0.01 µM [1] [%]	remaining activity at 0.1 µM [1] [%]	competition against 3H-PSMA-617 on PSMA-expressing LNCaP cells (in words) [1]	antiproliferative activity on VCap, C4-2, 22Rv1 and LnCap cells (in words) [2]	% remaining 3H-PSMA-617 @ 10 nM (mean) [1] [%]	% remaining 3H-PSMA-617 @ 100 nM (mean) [1] [%]	antiproliferative activity on VCap and C4-2 cells (in words) ([2]; 227Th-labelled compounds, in comparison to 227Th-labelled examples 1-C monomer, dimer, trimer and tetramer)	T/Carea [3]
Cc1cc(C(=O)NCCN(CCCN(CCNC(=O)c2cc(C)n(CC(=O)NCc3ccc(C(=O)N[C@@H](Cc4ccc5ccccc5n4)C(=O)NCCCC[C@H](NC(=O)N[C@@H](CCC(=O)O)C(=O)O)C(=O)O)nc3)c(=O)c2O)CCNC(=O)c2cc(C)n(CC(=O)NCc3ccc(C(=O)N[C@@H](Cc4ccc5ccccc5n4)C(=O)NCCCC[C@H](NC(=O)N[C@@H](CCC(=O)O)C(=O)O)C(=O)O)nc3)c(=O)c2O)CCNC(=O)c2cc(C)n(CC(=O)NCc3ccc(C(=O)N[C@@H](Cc4ccc5ccccc5n4)C(=O)NCCCC[C@H](NC(=O)N[C@@H](CCC(=O)O)C(=O)O)C(=O)O)nc3)c(=O)c2O)c(O)c(=O)n1CC(=O)NCc1ccc(C(=O)N[C@@H](Cc2ccc3ccccc3n2)C(=O)NCCCC[C@H](NC(=O)N[C@@H](CCC(=O)O)C(=O)O)C(=O)O)nc1 [34-C tetramer]	73	14		high antiproliferative activity			improved antiproliferative activity	
Cc1cc(C(=O)NCCN(CCCN(CCNC(=O)c2cc(C)n(CC(=O)O)c(=O)c2O)CCNC(=O)c2cc(C)n(CC(=O)NC[C@H]3CC[C@H](C(=O)N[C@@H](Cc4ccc5ccccc5c4)C(=O)NCCCC[C@H](NC(=O)N[C@@H](CCC(=O)O)C(=O)O)C(=O)O)CC3)c(=O)c2O)CCNC(=O)c2cc(C)n(CC(=O)NC[C@H]3CC[C@H](C(=O)N[C@@H](Cc4ccc5ccccc5c4)C(=O)NCCCC[C@H](NC(=O)N[C@@H](CCC(=O)O)C(=O)O)C(=O)O)CC3)c(=O)c2O)c(O)c(=O)n1CC(=O)O [1-C dimer, (3S,10S,14S,3'S,10'S,14'S)-1,1′-(propane-1,3-diylbis{[(2-{[1-(carboxymethyl)-3-hydroxy-6-methyl-2-oxo-1,2-dihydropyridine-4-carbonyl]amino}ethyl)azanediyl]ethane-2,1-diylcarbamoyl(3-hydroxy-6-methyl-2-oxopyridine-4,1(2H)-diyl)(1-oxoethane-2,1-diyl)azanediylmethylene(1r,4S)cyclohexane-4,1-diyl})bis{3-[(naphthalen-2-yl)methyl]-1,4,12-trioxo-2,5,11,13-tetraazahexadecane-10,14,16-tricarboxylic acid}]			improved competition	high antiproliferative activity	39	5		
